Measured values from patent publication US9163024B2, “Tris salts of 8-chloro-3-pentyl-3,7-dihydro-1H-purine-2,6-dione” (GlaxoSmithKline LLC, priority 2008, dated 2015).
Counter-ions that a name gives are not always drawn.

Experiments:
[1] = physical stability: conversion to a hydrated form during aqueous based processing (wet granulation); assay type: physicochemical; conditions: during essential manufacturing processes / aqueous based processing steps, e.g. wet granulation; tris salt compared to free acid
solubility = assay type: physicochemical; conditions: tris salt compared to free acid
absorption (Cmax, Tmax) = assay type: in vivo; conditions: tris salt compared to free acid

Compound	physical stability (remains in original form, no conversion by hydration) [1]	solubility (solubility)	Cmax (absorption (Cmax, Tmax))	Tmax (absorption (Cmax, Tmax); indicates faster absorption)
CCCCCn1c(=O)[nH]c(=O)c2[nH]c(Cl)nc21 [tris salt, 8-chloro-3-pentyl-3,7-dihydro-1H-purine-2,6-dione trishydroxymethylaminomethane]	enhanced physical stability	higher solubility than the free acid	increased	decreased
CCCCCn1c(=O)[nH]c(=O)c2[nH]c(Cl)nc21 [free acid, 8-chloro-3-pentyl-3,7-dihydro-1H-purine-2,6-dione]	readily convert to a hydrated form			
